Test results from patent US9845322B2 (Hoffmann-La Roche Inc., priority 2016, dated 2017).
Where two headings read alike, the source gives them in different places.

System: HBsAg secretion in HepG2.2.15 cells
Test: HBsAg assay (chemiluminescence immunoassay of secreted HBsAg in culture supernatant)
Assay type: cell-based, HBV
How it was run: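 HepG2.2.15 cells (1.5×10^4/well, duplicate) treated with three-fold compound dilutions, 1% DMSO final, DMSO as no-drug control. Secreted HBsAg in supernatant quantified semi-quantitatively by chemiluminescence immunoassay; IC50 is concentration reducing HBsAg 50% versus no-drug control.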

[1] = Hepatitis B virus, HepG2.2.15, HepG2.2.15 cells, concentration at which HBsAg secretion was reduced by 50% compared to the no drug control, read-out: IC50 (HBsAg assay)
[2] = HepG2.2.15 cells, concentration at which HBsAg secretion was reduced by 50% compared to the no drug control, read-out: IC50 (HBsAg assay)

Row | SMILES | IC50 [1] | other results
1 | CC1c2cnc(-c3ncccn3)nc2CCN1c1cc(F)c(F)c(OCC(=O)NC2CCOC2)c1 (stereo not drawn) [Example 83, 2-[2,3-difluoro-5-(5-methyl-2-pyrimidin-2-yl-7,8-dihydro-5H-pyrido[4,3-d]pyrimidin-6-yl)phenoxy]-N-tetrahydrofuran-3-yl-acetamide] | 190 nM | –
2 | CC1c2cnc(-c3ncccn3)nc2CCN1c1cc(OCCCCCCCC(N)=O)cc(F)n1 (stereo not drawn) [Example 169, 8-[[2-fluoro-6-(5-methyl-2-pyrimidin-2-yl-7,8-dihydro-5H-pyrido[4,3-d]pyrimidin-6-yl)-4-pyridyl]oxy]octanamide] | 18 nM | –
3 | COc1cc(F)cc(N2CCc3nc(-c4ncccn4)ncc3C2C)c1 (single isomer, unassigned; (+)) [Example 74, (+)-6-(3-fluoro-5-methoxy-phenyl)-5-methyl-2-pyrimidin-2-yl-7,8-dihydro-5H-pyrido[4,3-d]pyrimidine] | – | IC50 [2]: 2250 nM
4 | CC1c2cnc(-c3ncccn3)nc2CCN1c1cc(F)c(F)c(OCCCCCCN)c1 (single isomer, unassigned; (+)) [Example 61, (+)-6-[2,3-difluoro-5-[5-methyl-2-pyrimidin-2-yl-7,8-dihydro-5H-pyrido[4,3-d]pyrimidin-6-yl]phenoxy]hexan-1-amine] | – | IC50 [2]: 3320 nM
5 | COc1cc(Cl)cc(N2CCc3nc(-c4ncccn4)ncc3C2C)n1 (stereo not drawn) [Example 140, 6-(4-chloro-6-methoxy-2-pyridyl)-5-methyl-2-pyrimidin-2-yl-7,8-dihydro-5H-pyrido[4,3-d]pyrimidine] | 24 nM | –
6 | CC1c2cnc(-c3ccccn3)nc2CCN1c1cc(F)c(F)c(OCC(=O)O)c1 (stereo not drawn) [Example 28, 2-[2,3-difluoro-5-[5-methyl-2-(2-pyridyl)-7,8-dihydro-5H-pyrido[4,3-d]pyrimidin-6-yl]phenoxy]acetic acid] | 3080 nM | –
7 | CC1c2cnc(-c3ccccn3)nc2CCN1c1cc(F)c(F)c(OCCCS(C)(=O)=O)c1 (stereo not drawn) [Example 33, 6-[3,4-difluoro-5-(3-methylsulfonylpropoxy)phenyl]-5-methyl-2-(2-pyridyl)-7,8-dihydro-5H-pyrido[4,3-d]pyrimidine] | 48 nM | –
8 | CC1c2cnc(-c3ncccn3)nc2CCN1c1cc(OC2CCOCC2)cc(F)n1 (stereo not drawn) [Example 172, 6-(6-fluoro-4-tetrahydropyran-4-yloxy-2-pyridyl)-5-methyl-2-pyrimidin-2-yl-7,8-dihydro-5H-pyrido[4,3-d]pyrimidine] | 56 nM | –
9 | CC1c2cnc(-c3ncccn3)nc2CCN1c1cc(OCC2CN(S(C)(=O)=O)C2)cc(F)n1 (stereo not drawn) [Example 159, 6-[6-fluoro-4-[(1-methylsulfonylazetidin-3-yl)methoxy]-2-pyridyl]-5-methyl-2-pyrimidin-2-yl-7,8-dihydro-5H-pyrido[4,3-d]pyrimidine] | 56 nM | –
10 | CC1c2cnc(-c3ccccn3)nc2CCN1c1cc(F)cc(N2CCOCC2)n1 (stereo not drawn) [Example 221, 4-[4-fluoro-6-[5-methyl-2-(2-pyridyl)-7,8-dihydro-5H-pyrido[4,3-d]pyrimidin-6-yl]-2-pyridyl]morpholine] | 34 nM | –
11 | CC1c2cnc(-c3ncccn3)nc2CCN1c1cc(OCCCCCC(=O)O)cc(F)n1 (single isomer, unassigned; (-)) [Example 164, (−)-6-[[2-fluoro-6-[5-methyl-2-pyrimidin-2-yl-7,8-dihydro-5H-pyrido[4,3-d]pyrimidin-6-yl]-4-pyridyl]oxy]hexanoic acid] | 22 nM | –
12 | COCCCNS(=O)(=O)c1cc(F)cc(N2CCc3nc(-c4ncccn4)ncc3C2C)c1 (stereo not drawn) [Example 182, 3-fluoro-N-(3-methoxypropyl)-5-(5-methyl-2-pyrimidin-2-yl-7,8-dihydro-5H-pyrido[4,3-d]pyrimidin-6-yl)benzenesulfonamide] | 2240 nM | –
13 | CC1c2cnc(-c3ccccn3)nc2CCN1c1cc(N(C)C)cc(F)n1 (stereo not drawn) [Example 216, 2-fluoro-N,N-dimethyl-6-[5-methyl-2-(2-pyridyl)-7,8-dihydro-5H-pyrido[4,3-d]pyrimidin-6-yl]pyridin-4-amine] | 13 nM | –
14 | CC1c2cnc(-c3ncccn3)nc2CCN1c1cc(F)cc(C(F)(F)F)c1 (stereo not drawn) [Example 81, 6-[3-fluoro-5-(trifluoromethyl)phenyl]-5-methyl-2-pyrimidin-2-yl-7,8-dihydro-5H-pyrido[4,3-d]pyrimidine] | 131 nM | –
15 | COc1cc(N2CCc3nc(-c4ccccn4)ncc3C2C)cc(F)c1F (single isomer, unassigned; (-)) [Example 7, (−)-6-(3,4-difluoro-5-methoxy-phenyl)-5-methyl-2-(2-pyridyl)-7,8-dihydro-5H-pyrido[4,3-d]pyrimidine] | – | IC50 [2]: 12 nM
16 | COc1cc(N2CCc3nc(-c4ccccn4)ncc3C2C)cc(F)c1F (single isomer, unassigned; (+)) [Example 6, (+)-6-(3,4-difluoro-5-methoxy-phenyl)-5-methyl-2-(2-pyridyl)-7,8-dihydro-5H-pyrido[4,3-d]pyrimidine] | – | IC50 [2]: 8070 nM
17 | COCCS(=O)(=O)NCCCOc1cc(N2CCc3nc(-c4ncccn4)ncc3C2C)cc(F)c1F (stereo not drawn) [Example 94, N-[3-[2,3-difluoro-5-(5-methyl-2-pyrimidin-2-yl-7,8-dihydro-5H-pyrido[4,3-d]pyrimidin-6-yl)phenoxy]propyl]-2-methoxy-ethanesulfonamide] | 70 nM | –

Row | SMILES | IC50 [1] | other results
18 | CCC1c2cnc(-c3ccccn3)nc2CCN1c1cc(F)c(F)c(OC)c1 (stereo not drawn) [Example 9, 6-(3,4-difluoro-5-methoxy-phenyl)-5-ethyl-2-(2-pyridyl)-7,8-dihydro-5H-pyrido[4,3-d]pyrimidine] | – | IC50 [2]: 183 nM
19 | COc1cc(N2CCc3nc(-c4ncccn4)ncc3C2C)cc(Cl)n1 (stereo not drawn) [Example 141, 6-(2-chloro-6-methoxy-4-pyridyl)-5-methyl-2-pyrimidin-2-yl-7,8-dihydro-5H-pyrido[4,3-d]pyrimidine] | 113 nM | –
20 | CC1c2cnc(-c3ccccn3)nc2CCN1c1ccc([N+](=O)[O-])cc1 (stereo not drawn) [Example 1, 5-methyl-6-(4-nitrophenyl)-2-(2-pyridyl)-7,8-dihydro-5H-pyrido[4,3-d]pyrimidine] | – | IC50 [2]: 186 nM
21 | CC1c2cnc(-c3ccccn3)nc2CCN1c1cc(F)cc(N2CCNC(=O)C2)n1 (stereo not drawn) [Example 223, 4-[4-fluoro-6-[5-methyl-2-(2-pyridyl)-7,8-dihydro-5H-pyrido[4,3-d]pyrimidin-6-yl]-2-pyridyl]piperazin-2-one] | 15 nM | –
22 | CC1c2cnc(-c3ncccn3)nc2CCN1c1cc(F)c(F)c(OCC2CCOCC2)c1 (stereo not drawn) [Example 89, 6-[3,4-difluoro-5-(tetrahydropyran-4-ylmethoxy)phenyl]-5-methyl-2-pyrimidin-2-yl-7,8-dihydro-5H-pyrido[4,3-d]pyrimidine] | 21 nM | –
23 | COc1cc(N2CCc3nc(-c4ncccn4)ncc3C2C)cc(F)c1C#N (stereo not drawn) [Example 22, 2-fluoro-6-methoxy-4-(5-methyl-2-pyrimidin-2-yl-7,8-dihydro-5H-pyrido[4,3-d]pyrimidin-6-yl)benzonitrile] | – | IC50 (Hepatitis B virus, HepG2.2.15, read-out: IC50 (HBsAg assay)): 27 nM
24 | CC1c2cnc(-c3ncccn3)nc2CCN1c1cc(N)cc(F)n1 (stereo not drawn) [Example 210, 2-fluoro-6-(5-methyl-2-pyrimidin-2-yl-7,8-dihydro-5H-pyrido[4,3-d]pyrimidin-6-yl)pyridin-4-amine] | 65 nM | –
25 | CC1c2cnc(-c3ncccn3)nc2CCN1c1cc(F)c(F)c(OCCC2COC2)c1 (stereo not drawn) [Example 79, 6-[3,4-difluoro-5-[2-(oxetan-3-yl)ethoxy]phenyl]-5-methyl-2-pyrimidin-2-yl-7,8-dihydro-5H-pyrido[4,3-d]pyrimidine] | 15 nM | –
26 | COc1c(Cl)c(F)cc(N2CCc3nc(-c4ncccn4)ncc3C2C)c1Cl (single isomer, unassigned; (+)) [Example 124, (+)-6-(2,4-dichloro-5-fluoro-3-methoxy-phenyl)-5-methyl-2-pyrimidin-2-yl-7,8-dihydro-5H-pyrido[4,3-d]pyrimidine] | 1250 nM | –
27 | CC1c2cnc(-c3ncccn3)nc2CCN1c1cc(F)cc(OC2CCOCC2)n1 (stereo not drawn) [Example 173, 6-(4-fluoro-6-tetrahydropyran-4-yloxy-2-pyridyl)-5-methyl-2-pyrimidin-2-yl-7,8-dihydro-5H-pyrido[4,3-d]pyrimidine] | 132 nM | –
28 | CC1c2cnc(-c3ncccn3)nc2CCN1c1cc(F)c(F)c(OCC2(CO)CC2)c1 (stereo not drawn) [Example 77, [1-[[2,3-difluoro-5-(5-methyl-2-pyrimidin-2-yl-7,8-dihydro-5H-pyrido[4,3-d]pyrimidin-6-yl)phenoxy]methyl]cyclopropyl]methanol] | 105 nM | –
29 | CC1c2cnc(-c3ncccn3)nc2CCN1c1cc(N2CCCC2)cc(F)n1 (single isomer, unassigned; (+)) [Example 201, (+)-6-(6-fluoro-4-pyrrolidin-1-yl-2-pyridyl)-5-methyl-2-pyrimidin-2-yl-7,8-dihydro-5H-pyrido[4,3-d]pyrimidine] | – | IC50 [2]: 124 nM
30 | COC(=O)c1cc(F)cc(N2CCc3nc(-c4ncccn4)ncc3C2C)c1 (stereo not drawn) [Example 175, methyl 3-fluoro-5-(5-methyl-2-pyrimidin-2-yl-7,8-dihydro-5H-pyrido[4,3-d]pyrimidin-6-yl)benzoate] | 1460 nM | –
31 | CC1c2cnc(-c3ccccn3)nc2CCN1c1cc(OCC2CC2)cc(F)n1 (stereo not drawn) [Example 191, 6-[4-(cyclopropylmethoxy)-6-fluoro-2-pyridyl]-5-methyl-2-(2-pyridyl)-7,8-dihydro-5H-pyrido[4,3-d]pyrimidine] | 35 nM | –
32 | CC1c2cnc(-c3ncccn3)nc2CCN1c1cc(F)cc(C2CC2)c1 (stereo not drawn) [Example 137, 6-(3-cyclopropyl-5-fluoro-phenyl)-5-methyl-2-pyrimidin-2-yl-7,8-dihydro-5H-pyrido[4,3-d]pyrimidine] | 124 nM | –
33 | CC1c2cnc(-c3ncccn3)nc2CCN1c1cc(N2CCNCC2)cc(F)n1 (stereo not drawn) [Example 208, 6-(6-fluoro-4-piperazin-1-yl-2-pyridyl)-5-methyl-2-pyrimidin-2-yl-7,8-dihydro-5H-pyrido[4,3-d]pyrimidine] | 186 nM | –
